Test results reported in patent US20070128217A1 (priority 2003, published 2007).

Experiments:
[1] = system: rabbit serum obtained by immunizing a rabbit with the SARS-CoV strain Frankfurt 1; assay type: binding; set-up: Binding of a rabbit serum to linear peptides / Binding of a rabbit serum to looped peptides / Rabbit serum linear peptides / Rabbit serum looped peptides / Binding of a rabbit serum to linear peptides of protein N of SARS-CoV Urbani (Rabbit serum linear peptides) / Binding of a rabbit serum to looped/cyclic peptides of protein N of SARS-CoV Urbani (Rabbit serum looped peptides): unit not given here
[2] = system: recombinant human anti-SARS-CoV antibody 03-018; assay type: binding; set-up: Binding of antibody 03-018 to linear peptides of the N protein of SARS-CoV Urbani / Binding of antibody 03-018 to looped/cyclic peptides of the N protein of SARS-CoV Urbani: unit not given here
[3] = system: antibodies in sera from SARS patients (sera 1a, 1b, 2, 6, 37, 62, London, SARS-yellow, SARS-green); assay type: binding, human; set-up: Binding of serum 6 to linear peptides of protein X1 of SARS-CoV Urbani / Binding of serum 37 to linear peptides of protein X1 of SARS-CoV Urbani / Binding of serum 6 to looped/cyclic peptide (PEPSCAN-ELISA) / Binding of serum 37 to looped/cyclic peptide (PEPSCAN-ELISA) / Binding of serum 37 to looped/cyclic peptides of protein X1 of SARS-CoV Urbani / Binding of serum 6 to linear peptides of protein X2 / Binding of serum 37 to linear peptides of protein X2 / Binding of serum 37 to looped/cyclic peptides of protein X2 of SARS-CoV Urbani / Binding of serum 6 to linear peptides of protein M of SARS-CoV Urbani / Binding of serum 37 to linear peptides of protein M of SARS-CoV Urbani / Binding of serum 6 to looped/cyclic peptides of protein M of SARS-CoV Urbani / Binding of serum 37 to looped/cyclic peptides of protein M of SARS-CoV Urbani / Binding of serum 6 to linear peptides of protein X3 of SARS-CoV Urbani / Binding of serum 37 to linear peptides of protein X3 of SARS-CoV Urbani / Binding of serum 37 to looped/cyclic peptides of protein X3 of SARS-CoV Urbani / Binding of serum 6 to linear peptides of protein X4 of SARS-CoV Urbani / Binding of serum 37 to linear peptides of protein X4 of SARS-CoV Urbani / Binding of serum 37 to looped/cyclic peptides of protein X4 of SARS-CoV Urbani / Binding of serum 6 to linear peptides of protein X5 of SARS-CoV Urbani / Binding of serum 37 to linear peptides of protein X5 of SARS-CoV Urbani / Binding of serum 37 to looped/cyclic peptides of protein X5 of SARS-CoV Urbani / Binding of serum 6 to linear peptides of protein N of SARS-CoV Urbani / Binding of serum 37 to linear peptides of protein N of SARS-CoV Urbani / Binding of serum 6 to linear peptide (PEPSCAN-ELISA) / Binding of serum 1a to looped/cyclic peptides of protein N of SARS-CoV Urbani / Binding of serum 1b to looped/cyclic peptides of protein N of SARS-CoV Urbani / Binding of serum 2 to looped/cyclic peptides of protein N of SARS-CoV Urbani / Binding of serum 6 to looped/cyclic peptides of protein N of SARS-CoV Urbani / Binding of serum 37 to looped/cyclic peptides of protein N of SARS-CoV Urbani / Binding of serum 62 to looped/cyclic peptides of protein N of SARS-CoV Urbani / Binding of serum London to looped/cyclic peptides of protein N of SARS-CoV Urbani / Binding of serum SARS-green to looped/cyclic peptides of protein N of SARS-CoV Urbani: unit not given here
[4] = system: control sera (pooled serum of ten healthy LUMC hospital workers; commercial negative donor pooled serum from the Dutch bloodbank); assay type: binding, human; set-up: Binding of Control serum LUMC to linear peptides / Binding of Control serum Blood-bank to linear peptides / Binding of Control serum LUMC to looped peptides / Binding of Control Serum Blood-Bank to Looped peptides / Binding of Control serum LUMC to linear peptides of the protein M of SARS-CoV Urbani / Binding of Control serum Blood-bank to linear peptides of the protein M of SARS-CoV Urbani / Binding of Control serum LUMC to looped peptides of the protein M of SARS-CoV Urbani / Binding of Control Serum Blood-Bank to Looped peptides of the protein M of SARS-CoV Urbani: unit not given here

Sequence | Binding of a rabbit serum to linear peptides of protein N of SARS-CoV Urbani (Rabbit serum linear peptides) [1] | Binding of a rabbit serum to looped/cyclic peptides of protein N of SARS-CoV Urbani (Rabbit serum looped peptides) [1] | Binding of antibody 03-018 to linear peptides of the N protein of SARS-CoV Urbani [2] | Binding of antibody 03-018 to looped/cyclic peptides of the N protein of SARS-CoV Urbani [2] | Binding of serum 1a to linear peptides of protein N of SARS-CoV Urbani [3] | Binding of serum 1a to looped/cyclic peptides of protein N of SARS-CoV Urbani [3] | Binding of serum 1b to linear peptides of protein N of SARS-CoV Urbani [3] | Binding of serum 1b to looped/cyclic peptides of protein N of SARS-CoV Urbani [3] | Binding of serum 2 to linear peptides of protein N of SARS-CoV Urbani [3] | Binding of serum 2 to looped/cyclic peptides of protein N of SARS-CoV Urbani [3] | Binding of serum 6 to looped/cyclic peptides of protein N of SARS-CoV Urbani [3] | Binding of serum 37 to looped/cyclic peptides of protein N of SARS-CoV Urbani [3] | Binding of serum 62 to looped/cyclic peptides of protein N of SARS-CoV Urbani [3] | Binding of serum London to looped/cyclic peptides of protein N of SARS-CoV Urbani [3] | Binding of serum SARS-green to looped/cyclic peptides of protein N of SARS-CoV Urbani [3] | Binding of serum SARS-yellow to looped/cyclic peptides of protein N of SARS-CoV Urbani [3] | Binding of Control Serum Blood-Bank to Looped peptides [4] | Binding of Control serum Blood-bank to linear peptides [4] | Binding of Control serum LUMC to linear peptides [4] | Binding of Control serum LUMC to looped peptides [4] | other results
ELRFPRGQGVPINTN | 0.1 | 0.4 | 0.1 | 0.2 | 0.2 | 0.4 | 0.1 | 0.3 | 0.3 | 0.5 | 0.3 | 0.7 | 0.6 | 0.5 | 0.7 | 0.4 | 0.7 | 0.6 | 0.8 | 0.7 | Binding of serum 6 to linear peptides of protein N of SARS-CoV Urbani [3]: 0.1; Binding of serum 37 to linear peptides of protein N of SARS-CoV Urbani [3]: 0.7; Binding of serum 62 to linear peptides of protein N of SARS-CoV Urbani [3]: 0.7; Binding of serum London to linear peptides of protein N of SARS-CoV Urbani [3]: 0.5; Binding of serum SARS-green to linear peptides of protein N of SARS-CoV Urbani [3]: 0.4; Binding of serum SARS-yellow to linear peptides of protein N of SARS-CoV Urbani [3]: 0.6
ELSPRWYFYYLGTGP | 0.1 | 0.4 | 0.1 | 0.2 | 0.2 | 0.3 | 0.2 | 0.2 | 0.3 | 0.4 | 0.2 | 0.8 | 0.7 | 0.4 | 0.3 | 0.5 | 0.7 | 0.6 | 0.5 | 0.5 | Binding of serum 6 to linear peptides of protein N of SARS-CoV Urbani [3]: 0.2; Binding of serum 37 to linear peptides of protein N of SARS-CoV Urbani [3]: 0.8; Binding of serum 62 to linear peptides of protein N of SARS-CoV Urbani [3]: 0.7; Binding of serum London to linear peptides of protein N of SARS-CoV Urbani [3]: 0.5; Binding of serum SARS-green to linear peptides of protein N of SARS-CoV Urbani [3]: 0.4; Binding of serum SARS-yellow to linear peptides of protein N of SARS-CoV Urbani [3]: 0.7
EPKKDKKKKTDEAQP | 0.2 | 0.3 | 0.1 | 0.2 | 0.2 | 0.2 | 0.1 | 0.1 | 2.4 | 2.1 | 0.1 | 0.4 | 0.3 | 0.3 | 0.0 | 0.1 | – | – | – | – | Binding of serum 6 to linear peptides of protein N of SARS-CoV Urbani [3]: 0.2; Binding of serum 37 to linear peptides of protein N of SARS-CoV Urbani [3]: 0.7; Binding of serum 62 to linear peptides of protein N of SARS-CoV Urbani [3]: 0.7; Binding of serum London to linear peptides of protein N of SARS-CoV Urbani [3]: 0.7; Binding of serum SARS-green to linear peptides of protein N of SARS-CoV Urbani [3]: 0.5; Binding of serum SARS-yellow to linear peptides of protein N of SARS-CoV Urbani [3]: 0.6; Control Serum Blood-Bank Looped peptides [4]: 0.5; Control serum Blood-bank linear peptides [4]: 0.8; Control serum LUMC linear peptides [4]: 0.8; Control serum LUMC looped peptides [4]: 0.3
EQTQGNFGDQDLIRQ | 0.2 | 0.0 | 0.1 | 0.0 | – | 0.3 | – | 0.1 | – | 0.4 | 0.3 | 0.2 | 0.3 | 0.3 | 1.3 | 0.3 | 0.6 | 1.0 | 1.0 | 0.6 | Recognition of the peptide by sera of SARS-CoV infected individuals, and form (linear, looped/cyclic) in which it is recognized [3]: recognized in linear form
ESKVSGKGQQQQGQT | 0.1 | 0.6 | 0.1 | 0.2 | – | 0.6 | – | 0.4 | – | 0.8 | 0.4 | 0.7 | 0.7 | 0.8 | 0.7 | 0.9 | 1.1 | 0.7 | 0.8 | 0.9 | Binding of serum 1a to linear peptide (PEPSCAN-ELISA) [3]: 0.2; Binding of serum 1b to linear peptide (PEPSCAN-ELISA) [3]: 0.1; Binding of serum 2 to linear peptide (PEPSCAN-ELISA) [3]: 0.2; Binding of serum 6 to linear peptide (PEPSCAN-ELISA) [3]: 0.2; Binding of serum 37 to linear peptide (PEPSCAN-ELISA) [3]: 0.6; Binding of serum 62 to linear peptide (PEPSCAN-ELISA) [3]: 0.7; Binding of serum London to linear peptide (PEPSCAN-ELISA) [3]: 0.5; Binding of serum SARS-green to linear peptide (PEPSCAN-ELISA) [3]: 0.4; Binding of serum SARS-yellow to linear peptide (PEPSCAN-ELISA) [3]: 0.7
